Tests used:
Assay in all cases: normalised response (% of control), CellTox Green; higher = less cell death (100 = DMSO, 0 = benzethonium chloride kill control)
Conditions in all cases: incubation time: 72 h
BT-474 = system: BT-474
In short: (§1)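 After 72 h with compound in 384-well plates, breast cancer cell lines seeded as 20 µl suspension were read for CellTox Green fluorescence at 485/520 nm. CellTiter-Glo luminescence was then read after 10 min at room temperature. Compound was present at 5 concentrations in 10-fold steps over a 10,000-fold range set per compound, and plates were normalised to 0.1 % DMSO (100) and a positive kill control (0). Values are normalised signals, each at a single concentration.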

BT-549 = system: BT-549
In short: as §1

DU-4475 = system: DU-4475
In short: as §1

HCC1143 = system: HCC1143
In short: as §1

HCC1599 = system: HCC1599
In short: as §1

HCC1937 = system: HCC1937
In short: as §1

HDQ-P1 = system: HDQ-P1
In short: as §1

MFM-223 = system: MFM-223
In short: as §1

CAL-148 = system: CAL-148
In short: as §1

Row | Compound | normalised response (BT-474) | normalised response (BT-549) | normalised response (DU-4475) | normalised response (HCC1143) | normalised response (HCC1599) | normalised response (HCC1937) | normalised response (HDQ-P1) | normalised response (MFM-223) | normalised response (CAL-148)
1 | CC(C)C(=O)Nc1ccc([N+](=O)[O-])c(C(F)(F)F)c1 [Flutamide] (10000 nM) | 92.6% | 111% | 98.6% | 96.4% | 103% | 101% | 92.3% | 89% | 
2 | NC(=O)NO [Hydroxyurea] (100000 nM) | 97.4% | 109% | 97.6% | 118% | 104% | 111% | 110% | 96.8% | 88.3%
3 | O=NN(CCCl)C(=O)NC1CCCCC1 [Lomustine] (10000 nM) | 95.2% | 93.2% | 98.9% | 108% | 103% | 57.4% | 98.9% | 103% | 94.2%
4 | Cn1nnc2c(C(N)=O)ncn2c1=O [Temozolomide] (10000 nM) | 101% | 75.3% | 98.2% | 93.6% | 99.2% | 105% | 109% | 97.3% | 102%
5 | CC/C(=C(\c1ccccc1)c1ccc(OCCN(C)C)cc1)c1ccccc1 [Tamoxifen] (10000 nM) | 9.58% | 86.1% | 91.1% | 108% | 80.4% | 3.06% | 105% | 88% | 80.1%
6 | CN1CCN(c2nc(C3=C(c4c[nH]c5ccccc45)C(=O)NC3=O)c3ccccc3n2)CC1 [Sotrastaurin] (10000 nM) | 98.4% | 99.7% | 100% | 93.5% | 102% | 68.4% | 102% | 101% | 
7 | CC(C)C[C@H](NC(=O)[C@H](CCc1ccccc1)NC(=O)CN1CCOCC1)C(=O)N[C@@H](Cc1ccccc1)C(=O)N[C@@H](CC(C)C)C(=O)[C@@]1(C)CO1 [Carfilzomib] (1000 nM) | 45.7% | 62.5% | 87.3% | 72.1% | 99.5% | 32.8% | -14.6% | 55.2% | 12.2%
8 | Nc1nc(Cl)nc2c1ncn2[C@@H]1O[C@H](CO)[C@@H](O)[C@@H]1F [Clofarabine] (10000 nM) | 105% | 87.3% | 89.1% | 106% | 93.9% | 75.6% | 112% | 102% | 65.1%
9 | C[C@@H]1C[C@H]2[C@@H]3CCC4=CC(=O)C=C[C@]4(C)[C@@]3(F)[C@@H](O)C[C@]2(C)[C@@]1(O)C(=O)CO [Dexamethasone] (10000 nM) | 94% | 100% | 97.4% | 51.4% | 94.4% | 61.1% | 99.2% | 101% | 100%

Source: the supplement of paper PMC4862054
